Source: patent US7718764B2, “Biologically active peptide [sequence] derivatives” (CMS Peptides Patent Holding Company Limited, priority 2004, dated 2010)
Marks after values point to notes of the source that are not given here.

Experiments:
mice NK cell = experiment: Mice NK cell activity in vivo (i.p. dosing 20 days, spleen effector cells vs YAC-1 target cells, MTT); design: species or system BALB/c mice
Description: Animals were randomized into two peptide groups (200 μg/kg/day and 50 μg/kg/day), Cyclosporine A group (10 mg/kg/day), and saline group (0.5 ml/day). Each group contained 10 mice, in which half were female and half were male. All test substances were dissolved in 0.5 ml saline and administered intraperitoneally once per day for 20 days. T-lymphocyte transformation and NK cell activity were examined on the day immediately following the last injection. YAC-1 target cells were brought to log phase and adjusted to a density of 1×10^5/ml. Mice spleen cells prepared in section 2.2.2 above were adjusted to a density of 4×10^6/ml and used as effector cells. The cell suspensions were inoculated onto 96 wells cell culture plates as follows: Effector cell wells: 100 μl spleen cell suspension+100 μl RPMI-1640 Assay wells: 100 μl spleen cell suspension+100 μl YAC-1 cell suspension Target cell wells: 100 μl YAC-1 cell suspension+100 μl RPMI-1640 Three assay wells and three effector cell wells were set up for each animal, and 12 target cell wells were set up per cell culture plate. The plates were incubated at 37° C., 5% CO2 for 4 hours, then MTT was added and the plates were read at OD 570 nm referenced at 630 nm with ELISA reader. NK cell activity (%)=1−[(assay wells OD−effector cell wells OD)/target cell wells OD]×100%

mice T-lymphocyte = experiment: Mice T-lymphocyte transformation in vivo (i.p. dosing 20 days, spleen cells + ConA, MTT, stimulation index); design: species or system BALB/c mice; details: for Effect on mice T-lymphocyte transformation in vivo: at suitable dosages, vs saline control P<0.05
Description: Animals were randomized into two peptide groups (200 μg/kg/day and 50 μg/kg/day), Cyclosporine A group (10 mg/kg/day), and saline group (0.5 ml/day). Each group contained 10 mice, in which half were female and half were male. All test substances were dissolved in 0.5 ml saline and administered intraperitoneally once per day for 20 days. T-lymphocyte transformation and NK cell activity were examined on the day immediately following the last injection. The day after the last test substance administration, the mice were sacrificed by cervical dislocation. The spleens were isolated aseptically and manually dispersed in 10% FBS RPMI-1640 solution using an injection needle. The dispersed cell suspension was further sieved through a 100 gauge 150 μm diameter stainless steel sieve and adjusted to 4×10^6/ml. The cell suspensions were inoculated onto a 96 wells cell culture plate, 100 μl/well with the following design. Assay wells: 100 μl cell suspension+100 μl ConA Control wells: 100 μl cell suspension+100 μl RPMI-1640 Four assay and four control wells were set up for each animal. The plates were incubated at 37° C., 5% CO2 for 68 hours. MTT was then added and the plates read at OD 570 nm referenced at 630 nm with ELISA reader. Stimulation Index SI (%)=(assay well OD/control well OD)×100%.

S180 sarcoma cells = experiment: Growth of KM mice-transplanted S180 sarcoma cells in vivo; design: unit not given here; details: for Sarcoma volume: V=(1/6)πABC, saline 1.20 ± 0.28
Description: S180 sarcoma cells were transplanted intraperitoneally into KM mice for 6-8 days and the ascites aseptically collected. The cell concentration was adjusted to 1×10^7 per ml with 10% FBS RPMI-1640, and 0.2 ml cell suspension was injected through the armpit into each KM mice for developing the sarcoma bearing mice model. […] Intraperitoneal injection of test substances started on the day immediately after tumor transplantation and continued once per day for 20 consecutive days.
On the day after the last test substance administration, the sarcomas were removed from the mice and weighed. The diameters of each sarcoma on the three planes (A, B, C) were measured by a vernier caliper. The volume of the sarcoma was calculated by the formula: V=(⅙)πABC.

[1] = at suitable dosage, vs saline control P<0.05
[2] = Table 12, 250 μg/kg/day, saline 1.87 ± 0.52
[3] = Table 12, 500 μg/kg/day, saline 1.87 ± 0.52
[4] = Table 9, 50 μg/kg/day i.p. 20 days, saline 55.3 ± 6.1
[5] = Table 11, 10 μg/kg/day i.p. 20 days, saline 5.07 ± 5.46
[6] = Table 11, 50 μg/kg/day i.p. 20 days, saline 5.07 ± 5.46

Row | Molecule | Sarcoma volume (S180 sarcoma cells; Table 12, 250 μg/kg/day) | Sarcoma weight (S180 sarcoma cells; [2]) | Sarcoma volume (S180 sarcoma cells; Table 12, 500 μg/kg/day) | Sarcoma weight (S180 sarcoma cells; [3]) | also measured
1 | LNPK [CMS-010.28] |  |  |  |  | NK cell activity (%) (mice NK cell; Table 8, 200 μg/kg/day i.p. 20 days, saline 76.0 ± 4.3): 70.3 ± 6.7 %; Effect on mice NK cell activity in vivo (suppression) (mice NK cell; [1]): suppress; SI (mice T-lymphocyte; Table 4, 200 μg/kg/day i.p. 20 days, saline 3.63 ± 0.69): 2.70 ± 0.37; Effect on mice T-lymphocyte transformation in vivo (mice T-lymphocyte): suppress
2 | HPTLLTEAPLNPK [CMS-010.11] | 0.63 ± 0.40 | 0.64 ± 0.31 | 0.95 ± 0.54 | 1.14 ± 0.74 | NK cell activity (%) (mice NK cell; [4]): 63.5 ± 4.7 %; Effect on mice NK cell activity in vivo (enhancement) (mice NK cell; [1]): enhance
3 | NPK [CMS-010.31] | 0.25 ± 0.20*^@ | 0.27 ± 0.19*^@ | 0.43 ± 0.50 | 0.78 ± 0.89 | Sarcoma weight (S180 sarcoma cells; [5]): 1.05 ± 1.28; Sarcoma weight (S180 sarcoma cells; [6]): 1.20 ± 1.60
4 | PTLLTEAPLNPK [CMS-010.13] | 0.91 ± 0.59 | 0.92 ± 0.56 | 0.38 ± 0.23 | 0.73 ± 0.43 | NK cell activity (%) (mice NK cell; [4]): 70.9 ± 17.5 %; Effect on mice NK cell activity in vivo (enhancement) (mice NK cell; [1]): enhance
5 | VAPE [CMS-010.29] | 1.02 ± 0.66 | 1.24 ± 0.72 | 0.40 ± 0.11 | 0.55 ± 0.41 | 
6 | LLTEAPLNPK [CMS-010.17] | 0.40 ± 0.24 | 0.65 ± 0.41 | 0.55 ± 0.34 | 0.91 ± 0.46 | 
7 | VAPEEHP [CMS-010.22] | 0.24 ± 0.08*^@ | 0.28 ± 0.12*^@ | 0.73 ± 0.87 | 0.85 ± 0.73 | 
8 | VAPEEHPTLLTEAPL [CMS-010.07] | 0.24 ± 0.13*^@ | 0.32 ± 0.14*^@ | 0.37 ± 0.20 | 0.52 ± 0.25 | 
9 | VAPEEHPTLLTEAP [CMS-010.08] | 0.20 ± 0.14*^@ | 0.38 ± 0.27*^@ | 1.01 ± 0.63 | 1.05 ± 0.64 | 
10 | VAPEEHPTL [CMS-010.18] | 0.27 ± 0.20*^@ | 0.44 ± 0.31*^@ | 0.58 ± 0.42 | 0.59 ± 0.48 | 
11 | TLLTEAPLNPK [CMS-010.15] | 0.41 ± 0.37 | 0.45 ± 0.35*^@ | 0.63 ± 0.35 | 0.68 ± 0.36 | 
12 | EHPTLLTEAPLNPK [CMS-010.09] | 0.37 ± 0.44 | 0.45 ± 0.38*^@ | 0.84 ± 0.84 | 0.85 ± 0.70 | 
13 | VAPEEH [CMS-010.25] | 0.48 ± 0.37 | 0.65 ± 0.53 | 0.26 ± 0.21*^@ | 0.52 ± 0.38 | SI (mice T-lymphocyte; Table 5, 200 μg/kg/day i.p. 20 days, saline 3.15 ± 0.83): 2.43 ± 0.69; Effect on mice T-lymphocyte transformation in vivo (mice T-lymphocyte): suppress
14 | VAPEEHPTLL [CMS-010.16] | 0.61 ± 0.44 | 0.63 ± 0.47 | 0.92 ± 0.36 | 0.99 ± 0.42 | 
15 | VAPEE [CMS-010.27] | 0.58 ± 0.58 | 0.78 ± 0.68 | 0.51 ± 0.33 | 1.05 ± 0.86 | 
16 | LTEAPLNPK [CMS-010.19] | 0.46 ± 0.58 | 0.41 ± 0.45*^@ | 0.40 ± 0.42 | 0.68 ± 0.68 | 
17 | COc1cccc2c1C(=O)c1c(O)c3c(c(O)c1C2=O)C[C@@](O)(C(=O)CO)C[C@@H]3O[C@H]1C[C@H](N)[C@H](O)[C@H](C)O1 [Adriamycin, reference compound] |  |  |  |  | Sarcoma weight (S180 sarcoma cells; Table 11, 2 mg/kg/day i.p. 20 days, saline 5.07 ± 5.46): 1.52 ± 1.75
18 | VALLT [CMS-010.103] |  |  |  |  | Sarcoma weight (S180 sarcoma cells; [5]): 1.72 ± 1.53; Sarcoma weight (S180 sarcoma cells; [6]): 1.48 ± 1.44
19 | VAPEEHPT [CMS-010.20] | 0.88 ± 0.77 | 1.00 ± 0.76 | 0.54 ± 0.51 | 0.59 ± 0.46 | 
20 | VAPEEHPTLLTEAPLNP [CMS-010.03] | 0.31 ± 0.22 | 0.68 ± 0.46 | 0.27 ± 0.33*^@ | 0.33 ± 0.35*^@ | 
21 | VAPEEHPTLLTEAPLN [CMS-010.05] | 0.23 ± 0.19*^@ | 0.56 ± 0.33 | 0.34 ± 0.22 | 0.47 ± 0.29*^@ | 
22 | APEEHPTLLTEAPLNPK [CMS-010.02] | 0.36 ± 0.40 | 0.68 ± 0.72 | 0.65 ± 0.67 | 0.97 ± 0.85 | 
23 | TEAPLNPK [CMS-010.21] | 0.44 ± 0.22 | 0.51 ± 0.29 | 0.44 ± 0.21 | 0.44 ± 0.22*^@ | 
24 | PEEHPTLLTEAPLNPK [CMS-010.04] | 0.17 ± 0.12*^@ | 0.27 ± 0.19*^@ | 0.40 ± 0.28 | 0.62 ± 0.44 | SI (mice T-lymphocyte; Table 6, 50 μg/kg/day i.p. 20 days, saline 2.24 ± 0.52): 1.56 ± 0.25; Effect on mice T-lymphocyte transformation in vivo (mice T-lymphocyte): suppress
25 | O=P1(N(CCCl)CCCl)NCCCO1 (centres unmarked) [Cyclophosphamide, reference compound] |  |  |  |  | Sarcoma volume (S180 sarcoma cells; Table 12, 40 mg/kg/day): 0.76 ± 0.66; Sarcoma weight (S180 sarcoma cells; Table 12, 40 mg/kg/day, saline 1.87 ± 0.52): 1.07 ± 0.80
26 | VAPEEHPTLLTE [CMS-010.12] |  |  |  |  | SI (mice T-lymphocyte; Table 7, 50 μg/kg/d i.p. 20 days, saline 2.96 ± 0.61): 2.12 ± 0.42; Effect on mice T-lymphocyte transformation in vivo (mice T-lymphocyte): suppress
27 | EAPLNPK [CMS-010.23] | 0.21 ± 0.15*^@ | 0.27 ± 0.18^@ |  |  | 
